We go through four molecules from patent US8389677B2, “Antioxidant polypeptide and a process for isolation and purification of the same” (Adichunchanagiri Biotechnology and Cancer Research Institute, priority 2010, dated 2013).

The structures appear in SMILES notation.

The subject of one data set is lipid peroxidation. Description: Thio Barbituric Acid Reactive Substance (TBARS) antioxidant assay. Particulars: concentration 400 μM. It counts as biochemical. As for the experimental part: (§1) ATE containing 2 mg protein was loaded on to the Sephadex G-50 column (VT=240 ml, VO=80 ml) and eluted with 0.1M Tris HCl, pH −7.4 containing 0.1 M NaCl and flow rate was 1.7 ml/5 min, Fractions were monitored at 280 nm. Two peaks were obtained namely Peak I and Peak II. Peak II depicts the polypeptide of the present invention (Arishinin) as shown in FIG. 1 and the Gel filtration chromatography profile of Aqueous Turmeric Extract. Peak II was pooled, concentrated and dialyzed against double distilled water at 4° C. using 2 KDa cut off dialysis membrane for 74 hrs. […] The antioxidant activity was done by TBARS and Hydroxy radical scavenging assay compared to standard antioxidant like BHA, Curcumin and α-tocopherol as positive controls. Cell viability test by Tryphan blue exclusion method was done to test the toxicity of Arishinin.
(§2) The quantification of water-soluble antioxidant polypeptide Arishinin, isolated by the process described in Examples 1 to 4 (as depicted in Table 1 above) was determined by the following methods. Protein estimation was done by Bradford's method (Bradford, M. M., 1976, Analytical Biochem., […]) with an absorption maximum at 595 nm and results shown in Table 1. The antioxidant activity of Arishinin was evaluated by Thio Barbituric Acid Reactive Substance (TBARS) (Shimasaki, H., et al., 1984, Biochem. Biophys. Acta, 792:123-129) and Deoxyribose method/Hydroxyl radical scavenging assay (Halliwell, B., et al., 1981, Methods of Biochemical Sciences, 33:59-90) with absorption maximum at 535 nm by using BHA, alpha tocopherol and Curcumin as standard antioxidants.

A further data set deals with hydroxyl radical. Description: Deoxyribose method / Hydroxyl radical scavenging assay. Type of data set: biochemical. Particulars: concentration 400 μM. On the procedure: as §1, §2
In a further data set the test system is mice. Particulars: at more than 0.1% dose; cited from earlier work.

Turning to `Cc1c(C)c2c(c(C)c1O)CC[C@@](C)(CCC[C@H](C)CCC[C@H](C)CCCC(C)C)O2` [α-tocopherol], the “INHIBITION (%) TBARS” value in the data set on lipid peroxidation came out at 92 ± 1%. The “INHIBITION (%) Hydroxyl radical” value in the data set with hydroxyl radical stood at 88 ± 2%.
Consider `Cc1cc(C(C)(C)C)c(O)c(C(C)(C)C)c1` [BHT, Butylated Hydroxy Toluene], for which the “carcinogenicity (fore-stomach tumour in mice)” value with mice is recorded as “carcinogenic”.
`COc1cc(/C=C/C(=O)CC(=O)/C=C/c2ccc(O)c(OC)c2)ccc1O` [Curcumin]: the “INHIBITION (%) TBARS” value in the data set with lipid peroxidation was 72 ± 1.5%. In the data set on hydroxyl radical, the “INHIBITION (%) Hydroxyl radical” value was 68 ± 3%.
In the case of `COc1ccc(O)c(C(C)(C)C)c1` [BHA, Butylated Hydroxyl Anisole], in the data set on mice, the “carcinogenicity (fore-stomach tumour in mice)” value is reported as “carcinogenic”. Moreover, the “INHIBITION (%) TBARS” value with lipid peroxidation is 84 ± 1.5%. Besides, the “INHIBITION (%) Hydroxyl radical” value in the data set with hydroxyl radical came to 80 ± 1%.
